What was measured:
[1] = Extraction of ethanol from an aqueous solution by ionic liquid (HPLC); format: physicochemical; settings: ethanol in aqueous solution after mixing 3 mL of about 31 g/L ethanol with 150 microliters (5 vol %) ionic liquid, overnight equilibration, control 655
Method: (§1) Ethanol and isobutanol concentration in the solution was measured using HPLC as described above following thorough mixing and overnight equilibration of the contents of the vial.

[2] = test system: Saccharomyces cerevisiae (W1362 20A); assay: Glucose Uptake Index of Saccharomyces cerevisiae culture in YPD medium with ionic liquid added; settings: 5% (v/v) ionic liquid added after 4 h, further 16 h at 30° C., GUI of control without ionic liquid 79.0 (Ex. 1-5) or 100 (Ex. 6-8)
[3] = Extraction of isobutanol from an aqueous solution by ionic liquid (HPLC); format: physicochemical; settings: isobutanol in aqueous solution after mixing 3 mL of about 31 g/L isobutanol with 150 microliters (5 vol %) ionic liquid, overnight equilibration, control 436
Method: as §1

Compound | mM Ethanol [1] [mM] | GUI of Sample (Glucose Utilization Index in the presence of 5% (v/v) of the ionic liquid phase) [2] | mM isobutanol [3] [mM] | other results
1-Butyl-3-methylimidazolium levulinate [Example 5] | 596 |  |  | 
CCOCC[N+](C)(C)CCN1C(=O)CCC1C (centres unmarked) [Example 2, 1-(N,N,N-dimethyl(ethylethoxy)aminoethyl)-5-methyl-pyrrolidine-2-one hexafluoropropanesulfonate] |  | 34.0 |  | mM Ethanol ([1]; listed as [MeDMEEAP] [HFPS]): 656 mM; mM isobutanol ([3]; listed as [MeDMEEAP] [HFPS]): 422 mM
CCOCC[N+](C)(C)CCN1C(=O)CCC1C (centres unmarked) [Example 3, 1-(N,N,N-dimethyl(ethylethoxy)aminoethyl)-5-methyl-pyrrolidine-2-one bis(trifluoromethane)sulfonamide] |  | 80.4 |  | mM Ethanol ([1]; listed as [MeDMEEAP] [Tf2N]): 637 mM; mM isobutanol ([3]; listed as [MeDMEEAP] [Tf2N]): 398 mM
COCC[N+](C)(C)CCN1C(=O)CCC1C (centres unmarked) [Example 4, 1-(N,N,N-dimethyl(methylethoxy)aminoethyl)-5-methylpyrrolidin-2-one hexafluoropropanesulfonate] | 645 | 21.9 | 423 | 
CCC[N+](C)(C)CCN1C(=O)CCC1C.O=S(=O)([N-]S(=O)(=O)C(F)(F)F)C(F)(F)F (centres unmarked) [Example 6, 1-(N,N,N-dimethylpropylaminoethyl)-5-methylpyrrolidone-2-one bis(trifluoromethane)sulfonamide] |  | 100 | 387 | 
COCC[N+](C)(C)CCN1C(=O)CCC1C.O=S(=O)([N-]S(=O)(=O)C(F)(F)F)C(F)(F)F (centres unmarked) [Example 7, 1-(N,N,N-dimethyl(methylethoxy)aminoethyl)-5-methylpyrrolidone-2-one bis(trifluoromethane)sulfonamide] | 643 | 100 | 389 | 
CC1CCC(=O)N1CC[N+](C)(C)CCO.O=S(=O)([N-]S(=O)(=O)C(F)(F)F)C(F)(F)F (centres unmarked) [Example 8, 1-(N,N,N-dimethyl(hydroxyethyl)aminoethyl)-5-methylpyrrolidone-2-one bis(trifluoromethane)sulfonamide] |  | 89.3 | 417 | 
